Reference: patent US8524809B2, “Low odor compositions and methods to attain low odor compositions” (Rohm and Haas Company, priority 2010, dated 2013)

Assays:
[1] = target: T1, CALBL (Moesziomyces antarcticus, UniProt P41365); experiment: Small molecule inhibitors: EA content of latex containing CALBL; format: biochemical; details: for Inhibition of CALBL (in words): inhibitor 1.0%
T1 construct: purchased Novozymes, Bagsvaerd, Denmark Novozym CALB L
T1 sequence (P41365 26-342): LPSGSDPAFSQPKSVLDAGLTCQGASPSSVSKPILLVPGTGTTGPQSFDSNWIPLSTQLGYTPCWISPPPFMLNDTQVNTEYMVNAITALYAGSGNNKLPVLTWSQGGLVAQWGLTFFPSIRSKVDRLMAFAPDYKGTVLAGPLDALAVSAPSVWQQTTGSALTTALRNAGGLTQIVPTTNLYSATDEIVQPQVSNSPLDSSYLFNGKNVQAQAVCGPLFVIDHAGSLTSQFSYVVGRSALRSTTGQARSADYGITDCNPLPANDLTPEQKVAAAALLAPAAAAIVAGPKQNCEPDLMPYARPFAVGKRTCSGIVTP
Method: (§1) In another embodiment, deactivation of the carboxylesterase enzyme may be achieved by the addition of a small molecule inhibitor, as shown for CALBL and N51032 in Tables 13 and 14, below. […] The small molecule inhibitor and CALBL were added simultaneously at the time t=0. In the following tables, the potential small molecule inhibitors are as follows: […]

[2] = system: N51032; experiment: Small molecule inhibitors: EA content of latex containing N51032; format: biochemical
Method: as §1

[3] = AC-261 latex, CALBL 60 ppm, inhibitor 1.0% added simultaneously (Control: none), 0 hr
[4] = AC-261 latex, CALBL 60 ppm, inhibitor 1.0% added simultaneously (Control: none), 24 hr
[5] = AC-261 latex, CALBL 60 ppm, inhibitor 1.0% added simultaneously (Control: none), 72 hr
[6] = AC-261 latex, CALBL 60 ppm, inhibitor 1.0% added simultaneously (Control: none), 168 hr
[7] = CALBL 6 ppm, inhibitor 0.001%, 0 hr
[8] = CALBL 6 ppm, inhibitor 0.001%, 120 hr
[9] = CALBL 6 ppm, inhibitor 0.001%, 168 hr
[10] = CALBL 6 ppm, inhibitor 0.001%, 384 hr
[11] = CALBL 6 ppm, inhibitor 0.001%, 480 hr
[12] = CALBL 6 ppm, inhibitor 0.01%, 0 hr
[13] = CALBL 6 ppm, inhibitor 0.01%, 120 hr
[14] = CALBL 6 ppm, inhibitor 0.01%, 168 hr
[15] = CALBL 6 ppm, inhibitor 0.01%, 384 hr
[16] = CALBL 6 ppm, inhibitor 0.01%, 480 hr
[17] = CALBL 6 ppm, inhibitor 0.1%, 0 hr
[18] = CALBL 6 ppm, inhibitor 0.1%, 120 hr
[19] = CALBL 6 ppm, inhibitor 0.1%, 168 hr
[20] = CALBL 6 ppm, inhibitor 0.1%, 384 hr
[21] = CALBL 6 ppm, inhibitor 0.1%, 480 hr
[22] = AC-261 latex, N51032 50 ppm, inhibitor 1% added simultaneously (Control: none), 0 hr
[23] = AC-261 latex, N51032 50 ppm, inhibitor 1% added simultaneously (Control: none), 24 hr
[24] = AC-261 latex, N51032 50 ppm, inhibitor 1% added simultaneously (Control: none), 72 hr
[25] = AC-261 latex, N51032 50 ppm, inhibitor 1% added simultaneously (Control: none), 168 hr
[26] = N51032 5 ppm, inhibitor 0.001%, 0 hr
[27] = N51032 5 ppm, inhibitor 0.001%, 120 hr
[28] = N51032 5 ppm, inhibitor 0.001%, 168 hr
[29] = N51032 5 ppm, inhibitor 0.001%, 384 hr
[30] = N51032 5 ppm, inhibitor 0.001%, 480 hr
[31] = N51032 5 ppm, inhibitor 0.01%, 0 hr
[32] = N51032 5 ppm, inhibitor 0.01%, 120 hr
[33] = N51032 5 ppm, inhibitor 0.01%, 168 hr
[34] = N51032 5 ppm, inhibitor 0.01%, 384 hr
[35] = N51032 5 ppm, inhibitor 0.01%, 480 hr
[36] = N51032 5 ppm, inhibitor 0.1%, 0 hr
[37] = N51032 5 ppm, inhibitor 0.1%, 120 hr
[38] = N51032 5 ppm, inhibitor 0.1%, 168 hr
[39] = N51032 5 ppm, inhibitor 0.1%, 384 hr
[40] = N51032 5 ppm, inhibitor 0.1%, 480 hr

Row | Compound | EA content [1, 3] [ppm] | EA content [1, 4] [ppm] | EA content [1, 5] [ppm] | EA content [1, 6] [ppm] | EA content [1, 7] | EA content [1, 8] | EA content [1, 9] | EA content [1, 10] | EA content [1, 11] | EA content [1, 12] | EA content [1, 13] | EA content [1, 14] | EA content [1, 15] | EA content [1, 16] | EA content [1, 17] | Inhibition of CALBL (in words) ([1]; CALBL 60 ppm) | EA content [2, 22] [ppm] | EA content [2, 23] [ppm] | EA content [2, 24] [ppm] | EA content [2, 25] [ppm] | also measured
1 | OB(O)c1ccccc1 [PBA, phenylboronic acid] | 108 | 103 | 116 | 108 | 48 | 30 | 25 | 11 | 9 | 44 | 32 | 26 | 15 | 15 | 39 | effective in inhibiting the carboxylesterase enzyme | 116 | 116 | 111 | 117 | EA content [1, 18]: 35; EA content [1, 19]: 35; EA content [1, 20]: 29; EA content [1, 21]: 29; EA content [2, 26]: 46 ppm; EA content [2, 27]: 36 ppm; EA content [2, 28]: 34 ppm; EA content [2, 29]: 22 ppm; EA content [2, 30]: 19 ppm; EA content [2, 31]: 45 ppm; EA content [2, 32]: 41 ppm; EA content [2, 33]: 39 ppm; EA content [2, 34]: 34 ppm; EA content [2, 35]: 34 ppm; EA content [2, 36]: 46 ppm; EA content [2, 37]: 34 ppm; EA content [2, 38]: 41 ppm; EA content [2, 39]: 38 ppm; EA content [2, 40]: 39 ppm; Inhibition of N51032 (in words) ([2]; inhibitor 1%, N51032 50 ppm): effective in inhibiting the carboxylesterase enzyme
2 | CC(C)CB(O)O [2MPB, (2-methylpropyl) boronic acid] | 105 | 95 | 102 | 104 | 44 | 32 | 23 | 10 | 8 | 43 | 28 | 24 | 13 | 11 | 43 | effective in inhibiting the carboxylesterase enzyme | 117 | 92 | 99 | 79 | EA content [1, 18]: 34; EA content [1, 19]: 25; EA content [1, 20]: 15; EA content [1, 21]: 13; EA content [2, 26]: 42 ppm; EA content [2, 27]: 24 ppm; EA content [2, 28]: 22 ppm; EA content [2, 29]: 8 ppm; EA content [2, 30]: 6 ppm; EA content [2, 31]: 37 ppm; EA content [2, 32]: 25 ppm; EA content [2, 33]: 19 ppm; EA content [2, 34]: 6 ppm; EA content [2, 35]: 5 ppm; EA content [2, 36]: 43 ppm; EA content [2, 37]: 34 ppm; EA content [2, 38]: 27 ppm; EA content [2, 39]: 22 ppm; EA content [2, 40]: 20 ppm
3 | OB(O)C1CCCCC1 [CBA, cyclohexylboronic acid] | 102 | 70 | 55 | 24 | – | – | – | – | – | – | – | – | – | – | – | some ability to inhibit the CALBL enzyme | 117 | 96 | 109 | 79 | –
4 | CC(C)(C)CB(O)O [NPB, Neopentylboronic acid] | 107 | 21 | 0 | 0 | – | – | – | – | – | – | – | – | – | – | – | completely ineffective as an inhibitor of CALBL | 116 | 49 | 30 | 6 | –
5 | CCCCCCCCCCS(=O)(=O)[O-].[Na+] [S-1-DS, Sodium 1-decane-sulfonate] | 114 | 73 | 36 | 17 | – | – | – | – | – | – | – | – | – | – | – | some ability to inhibit the CALBL enzyme | 115 | 73 | 79 | 77 | –
